According to patent US9820487B2, “Abscinazole” (NATIONAL UNIVERSITY CORPORATION SHIZUOKA UNIVERSITY, priority 2014, dated 2017):

Assays:
[1] = target: T1, abscisic acid 8′-hydroxylase CYP707A3 (Arabidopsis thaliana, UniProt Q9FH76); assay: Abscisic acid 8′-hydroxylase CYP707A3 inhibition test; type: biochemical; conditions: CYP707A3 + NADPH-P450 reductase ATR1, substrate ABA, 30° C. 10 minutes; IC50 calculated from two concentrations
T1 sequence (Q9FH76 1-463): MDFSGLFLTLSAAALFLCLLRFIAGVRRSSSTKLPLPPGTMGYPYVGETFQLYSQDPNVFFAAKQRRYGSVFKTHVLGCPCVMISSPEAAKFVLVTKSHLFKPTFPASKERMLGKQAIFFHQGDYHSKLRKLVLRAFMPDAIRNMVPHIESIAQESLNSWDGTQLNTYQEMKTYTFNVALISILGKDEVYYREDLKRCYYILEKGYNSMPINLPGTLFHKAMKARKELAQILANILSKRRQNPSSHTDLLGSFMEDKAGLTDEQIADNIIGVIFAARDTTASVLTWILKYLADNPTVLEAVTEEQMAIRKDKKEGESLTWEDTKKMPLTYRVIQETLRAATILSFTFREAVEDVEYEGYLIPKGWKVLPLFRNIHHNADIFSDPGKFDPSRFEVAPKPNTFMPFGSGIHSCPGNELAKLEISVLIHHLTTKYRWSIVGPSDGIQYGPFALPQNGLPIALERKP
Method: In a 1.5 mL microtube, 10 μL of a solution of substrate 250 μM ABA in potassium/phosphate buffer (KPB), 5 μL of a solution of the sample in dimethylformamide, 435 μL of KPB and 40 μL of abscisic acid 8′-hydroxylase CYP707A3+NADPH-P450 reductase ATR1 were put and heated at 30° C. for 10 minutes. 10 μL of a solution of 5 mg/mL NADPH in KPB was added thereto thereby starting the enzyme reaction. The reaction was carried out at 30° C. for 10 minutes at a rotation speed of 1000 rpm, and 25 μL of an aqueous solution of 1 M sodium hydroxide was added thereto thereby terminating the reaction. The reaction solution was allowed to stand at 4° C. for 30 minutes and subsequently 50 μL of 1 M hydrochloric acid was added thereto to convert the enzyme metabolite to phaseic acid (PA). The enzyme reaction solution was subjected to an OASIS HLB cartridge (1 cc, 30 mg; washed with 1 mL of methanol (1% acetic acid) and equilibrated with 1 mL of water (1% acetic acid)) and washed with 1 mL of 10% methanol/water (1% acetic acid) thereby eluting phaseic acid with 1 mL of methanol (1% acetic acid). The eluate was concentrated under reduced pressure (toluene was added to azeotrope acetic acid), the obtained substance was dissolved in 50 μL of methanol. 20 μL of the solution was subjected to HPLC (column, YMC-Pack Hydrosphere C18 (6 mm inner diameter×150 mm length); flow rate 1 mL/min; detection 254 nm) analysis. The CYP707A3 inhibition rate of the samples was calculated in accordance with the following formula (3). Note that dimethylformamide was used for the control in place of the sample solution. Each sample was tested with two different concentrations to calculate the 50% inhibition concentration (IC50) based on the enzyme inhibition rates thereof The results are shown in Table 1.
Enzyme inhibition rate (%)={1-(PA peak area of each sample/PA peak area of control)}×100 . . . (3)

[2] = target: T2, ent-kaurene oxidase CYP701A6 (Oryza sativa subsp. japonica, UniProt Q5Z5R4); assay: Ent-kaurene oxidase CYP701A6 inhibition test; type: biochemical; conditions: CYP701A6 + NADPH-P450 reductase ATR2, substrate ent-kaurene, 30° C. 30 minutes; IC50 calculated from two concentrations
T2 sequence (Q5Z5R4 1-505): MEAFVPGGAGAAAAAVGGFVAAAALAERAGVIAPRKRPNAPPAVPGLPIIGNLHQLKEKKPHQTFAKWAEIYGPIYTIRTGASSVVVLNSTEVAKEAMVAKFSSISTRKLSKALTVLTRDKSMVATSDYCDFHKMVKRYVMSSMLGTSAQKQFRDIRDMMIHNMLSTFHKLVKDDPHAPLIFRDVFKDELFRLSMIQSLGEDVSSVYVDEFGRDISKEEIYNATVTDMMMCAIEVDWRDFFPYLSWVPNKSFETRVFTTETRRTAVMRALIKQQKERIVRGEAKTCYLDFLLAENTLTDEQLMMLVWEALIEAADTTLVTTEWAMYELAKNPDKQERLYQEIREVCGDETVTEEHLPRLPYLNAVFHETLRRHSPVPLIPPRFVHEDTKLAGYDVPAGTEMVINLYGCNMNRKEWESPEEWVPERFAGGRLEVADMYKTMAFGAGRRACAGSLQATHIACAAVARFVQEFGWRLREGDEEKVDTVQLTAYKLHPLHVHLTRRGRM
Method: To a 1.5 mL microtube, 8 μL of an aqueous solution of 500 μM ent-kaurene as a substrate in 45% cyclodextrin and 8μL of a solution of the sample in dimethylformamide were put. 10 μL of 2.32 μM ent-kaurene oxidase CYP701A6 and 10 μL of 4.6 unit/mL NADPH-P450 reductase ATR2, heated at 30° C. for 5 minutes in advance, were added thereto. 304 μL of ultra-pure water, 40 μL of 500 mM KPB and 20 μL of an aqueous solution of 20 mM NADPH, heated at 30° C. for 10 minutes in advance, were added thereto thereby starting the enzyme reaction. The reaction was carried out at 30° C. for 30 minutes at a rotation speed of 1000 rpm and 100 μL of 1 M hydrochloric acid was added thereto thereby terminating the reaction. 5 μL of 10 μM abietic acid as the internal standard was added thereto, and the solution was extracted with 400 μL of ethyl acetate. The resultant was dried over sodium sulfate and subsequently concentrated under reduced pressure. 50 μL of methanol and 5 μL of 2 M trimethyl silyldiazomethane were added thereto to methylate carboxylic acid and the resultant was thy-solidified using nitrogen. The solidified product was dissolved in 150 μL of hexane and 1 μL of the resultant solution was subjected to a GC-MS analysis to detect the enzyme metabolite ent-kaurene acid. The CYP701A6 inhibition rate of the samples was calculated in accordance with the following formula (4). Note that the peak area of ent-kaurene acid was calculated from the peak area of m/z 273 and that ent-kaurene acid was identified from the area ratio of m/z 257, 213. The peak area of abietic acid was calculated from the area of m/z 256, and abietic acid was identified from the area ratio of m/z 316. Note that dimethylformamide was used for the control in place of the sample solution. Each sample was tested with two different concentrations to act late the 50% inhibition concentration (IC50) based on the enzyme inhibition rates thereof.
Enzyme inhibition rate (%)={1-(Ent-kaurene acid peak area of each sample/Abietic acid peak area of each sample/(Ent-kaurene acid peak area of control/Abietic acid peak area of control }×100 . . . (4)

[3] = tested on: seeds of thale cress (Arabidopsis thaliana, Col-0); assay: Thale cress seed germination inhibition test (2); type: in vivo; conditions: 120 hours after seed plantation (FIG. 3)
Method: Seeds of thale cress (Arabidopsis thaliana, Col-0) were immersed in […] an aqueous solution of 70% ethanol for 30 minutes, subsequently in 500 μL of 100% ethanol for 1 minute, washed three times in 1 mL of distilled water, then immersed in distilled water and, in a dark place, verbalized at 4° C. for 3 days. A solution of the sample in methanol and a solution of ABA in methanol were put in a 1.5 mL microtube, and methanol was removed therefrom under reduced pressure. An aqueous solution of 0.5% agar (containing 1/2 MS medium inorganic salts) at 70° C. was added thereto, followed by stirring the resultant. The obtained solution was placed in a 96-well plate to provide the medium containing the sample. 20 to 30 vernalized seeds of thale cress were planted in each well and cultured at 22° C. under continuous light to monitor the number of seeds germinated over time. The germination rate was calculated in accordance with the following formula (1). Note that the medium prepared using methanol in the same manner as above was used as an untreated control and a germination rate of 100% was achieved 72 hours later from the seed plantation. Germination rates 72 hours later from the seed plantation are shown in FIG. 1 and initial growth conditions of thale cress 120 hours later are shown in FIG. 2.
Germination rate (%)=Number of seeds germinated/Number of seeds planted×100 . . . (1) […]

Structure (SMILES) | potency estimated from few doses [1] | potency estimated from few doses [2] | seed germination inhibition compared with (−) form of Comparative Example 1 [3]
CCCCOCCOCCOCc1cn(-c2ccc(/C=C(\C(O)C(C)(C)C)n3cncn3)cc2)nn1 (single isomer, unassigned) [Comparative Example 1 (+) Form, 1-(4-(4-((2-(2-butoxyethoxy)ethoxy)methyl)-1H-1,2,3-triazol-1-yl)phenyl)-4,4-dimethyl-2-(1H-1,2,4-triazol-1-yl)pent-1-en-3-ol, reference compound] | 1100 nM | 1300 nM | –
CCCCOCCOCCOCc1cn(-c2ccc(/C=C(\C(O)C(C)(C)C)n3cncn3)cc2)nn1 (single isomer, unassigned) [Comparative Example 1 (−) Form, 1-(4-(4-((2-(2-butoxyethoxy)ethoxy)methyl)-1H-1,2,3-triazol-1-yl)phenyl)-4,4-dimethyl-2-(1H-1,2,4-triazol-1-yl)pent-1-en-3-ol, reference compound] | 54 nM | 1200 nM | –
COCCOCCOCCOCC#Cc1cccc(/C=C(\C(O)C(C)(C)C)n2cncn2)c1 (single isomer, unassigned) [Example 1 (+) Form, (E)-1-(3-(2,5,8,11-tetraoxatetradec-13-yn-14-yl)phenyl)-4,4-dimethyl-2-(1H-1,2,4-triazol-1-yl)pent-1-en-3-ol] | 1200 nM | 1600 nM | –
CCCCOCCOCCOCC#Cc1cccc(/C=C(\C(O)C(C)(C)C)n2cncn2)c1 (single isomer, unassigned) [Example 2 (+) Form, (E)-1-(3-(3-(2-(2-butoxyethoxy)ethoxy)prop-1-yn-1-yl)phenyl)-4,4-dimethyl-2-(1H-1,2,4-triazol-1-yl)pent-1-en-3-ol] | 240 nM | 120 nM | –
CCCCOCCOCCOCC#Cc1cccc(/C=C(\C(O)C(C)(C)C)n2cncn2)c1 (single isomer, unassigned) [Example 2 (−) Form, (E)-1-(3-(3-(2-(2-butoxyethoxy)ethoxy)prop-1-yn-1-yl)phenyl)-4,4-dimethyl-2-(1H-1,2,4-triazol-1-yl)pent-1-en-3-ol] | 12 nM | 62 nM | can inhibit the seed germination even in lower concentrations
COCCOCCOCCOCC#Cc1ccc(/C=C(\C(O)C(C)(C)C)n2cncn2)cc1 (single isomer, unassigned) [Example 3 (+) Form, (E)-1-(4-(2,5,8,11-tetraoxatetradec-13-yn-14-yl)phenyl)-4,4-dimethyl-2-(1H-1,2,4-triazol-1-yl)pent-1-en-3-ol] | 7700 nM | 17000 nM | –
COCCOCCOCCOCC#Cc1ccc(/C=C(\C(O)C(C)(C)C)n2cncn2)cc1 (single isomer, unassigned) [Example 3 (−) Form, (E)-1-(4-(2,5,8,11-tetraoxatetradec-13-yn-14-yl)phenyl)-4,4-dimethyl-2-(1H-1,2,4-triazol-1-yl)pent-1-en-3-ol] | 1500 nM | 8600 nM | –
CCCCOCCOCCOCC#Cc1ccc(/C=C(\C(O)C(C)(C)C)n2cncn2)cc1 (single isomer, unassigned) [Example 4 (+) Form] | 1000 nM | 1500 nM | –
CCCCOCCOCCOCC#Cc1ccc(/C=C(\C(O)C(C)(C)C)n2cncn2)cc1 (single isomer, unassigned) [Example 4 (−) Form] | 200 nM | 770 nM | –
